Like-named read-outs stand apart in the source and are kept apart here.
Experiments:
[1] = system: K. aerogenes Ea-294, Ea-308 (devoid of AcrAB); assay: MIC of compounds, K. aerogenes Ea-294, Ea-308; type: cell-based; conditions: Klebsiella aerogenes, read-out: Minimal Inhibitory Concentration (MIC)
From the text: (§1) A subset of compounds, namely 7, 12–16, 19, 20, was also examined for the potential to increase the effectiveness of the antibiotics chloramphenicol, erythromycin, doxycycline, and the fluoroquinolone antibiotic norfloxacin, which all are substrates for AcrAB-TolC in K. aerogenes. In addition to strain Ea-289, the adjuvant-like effect of the compounds was investigated in strain CM-64, which also overexpresses the AcrAB-TolC efflux pump, although it has no changes in porin content, and in the Ea-289 derivatives, i.e., Ea-294 and Ea-308, which are devoid of AcrAB (Table S17, Supplementary).
(§2) Determination of MIC values, i.e., intrinsic antibacterial activity, of products and antibiotics (oxacillin, ampicillin, vancomycin, ciprofloxacin, and erythromycin) in the presence and absence of compounds tested was conducted by the use of a standard 2-fold microdilution method in cation-adjusted Mueller Hinton broth following the Clinical and Laboratory Standards Institute (CLSI) guidelines. The MIC values were detected using an Infinite M200 pro Tecan microplate reader (Tecan® France, SA-Lyon, France). MIC determinations were conducted in 96-well microtiter plates and repeated 3–4 times.
(§3) MIC values of 5-arylideneimidazolone derivatives were determined following CLSI recommendations as in the methods described for S. aureus (Section 3.3.1).

K. aerogenes Ea-289 = assay: MIC reduction assay (antibiotic adjuvant), K. aerogenes Ea-289; type: cell-based, Klebsiella aerogenes;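 further: compound at no more than one quarter of its own MIC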
Experimental: At first, MIC values of compounds were determined (Table S15, Supplementary). Next, their abilities to reduce MICs of the AcrAB-TolC substrates doxycycline (a tetracycline-class antibiotic) and erythromycin were studied (Table S16, Supplementary).
as §1
(§4) Initially, MICs of a series of imidazolone derivatives were assessed against susceptible (reference) and MDR strains of staphylococci. Next, MIC values of the aforementioned antibiotics were determined in the absence and presence of imidazolone derivatives to assess the chemosensitizing effect of these compounds. […] 5-arylideneimidazolones and 5-arylidenethiazolones, which precipitated after addition to bacterial suspension in MH II medium, were tested at the highest concentrations at which precipitation was not observed. […] Antibacterial activity of compounds and antibiotics ampicillin, vancomycin, ciprofloxacin, and erythromycin was recorded as the lowest concentration of molecules able to inhibit bacterial growth after 18 h incubation at 37 °C. The incubation of bacterial strains exposed to oxacillin paired with compounds tested was conducted at 35 °C and extended to 24 h due to frequent occurrence of heterogeneity among MRSA strains. The results are presented as activity gain (A) parameter which was calculated as ratio of MIC of a certain antibiotic (MICAnt) to its MICAnt+Comp, observed in combination with a tested compound (7, 12–16, 19, or 20; Equation (1)). (1) A=(MICAnt/MICAnt+Comp)
as §3

[2] = system: K. aerogenes Ea-289 (overexpression of AcrAB-TolC); assay: MIC of compounds, K. aerogenes Ea-289; type: cell-based; conditions: Klebsiella aerogenes
Experimental: At first, MIC values of compounds were determined (Table S15, Supplementary). Next, their abilities to reduce MICs of the AcrAB-TolC substrates doxycycline (a tetracycline-class antibiotic) and erythromycin were studied (Table S16, Supplementary). […]
as §2, §3

[3] = system: AcrAB-TolC efflux pump in K. aerogenes strain Ea-289; assay: Real-time efflux (RTE) assay, 1,2'-dNA extrusion; type: cell-based, Klebsiella aerogenes; conditions: compound 100 µM; IE=100% total inhibition of efflux
Experimental: Compounds 7, 12–16, 19, and 20 were also assessed for their EPI property in K. aerogenes strain Ea-289 with the use of a real-time efflux (RTE) assay. Results for compounds 16 and 20 were previously described. The experiment is based on the measurement of the extrusion of a fluorescent dye from bacterial cells overproducing efflux pump transporters in the presence and absence of compounds tested. The dye used in this assay, 1,2’ –dinaphthylamine (1,2’-dNA), is a substrate for the AcrAB-TolC efflux pump, and is strongly fluorescent upon incorporation into a phospholipid bilayer, although it is almost non-fluorescent in an aqueous solution [37, 38].
A likewise strong blocking efficacy (IE = 83 %) was also noticed for compound 12, while the lowest inhibitory effect was found for compound 13 (IE = 23 %).
The inhibitory activity of 5-arylideneimidazolone derivatives towards AcrAB-TolC mediated efflux of 1,2’-dNA was detected in K. aerogenes strain Ea-289 by using a real-time fluorometric method. In a first step, bacterial cells were loaded with the environment-sensitive fluorescent membrane probe, 1,2’-dNA, in the presence of the EPI carbonyl cyanide m-chlorophenylhydrazone (CCCP) which inactivated the pump by dissipating membrane potential. Next, compounds tested were added at the concentration of 100 µM and the efflux was energizing by automated injection of glucose at a dose of 50 µM. The fluorescence intensity was measured in a microplate reader (Tecan) with an excitation wavelength of λex = 370 nm and an emission wavelength of λem = 420 nm.

[4] = system: K. aerogenes Ea-294, Ea-308; assay: MIC reduction assay (antibiotic adjuvant), K. aerogenes Ea-294, Ea-308; type: cell-based, Klebsiella aerogenes; conditions: doxycycline, chloramphenicol, norfloxacin, erythromycin;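 further: compound at no more than one quarter of its own MIC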
From the text: as §1, §4, §3

K. aerogenes CM-64 = assay: MIC reduction assay (antibiotic adjuvant), K. aerogenes CM-64; type: cell-based, Klebsiella aerogenes; conditions: doxycycline, chloramphenicol, norfloxacin, erythromycin;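 further: compound at no more than one quarter of its own MIC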
From the text: as §1, §4, §3

S. aureus MM-O021 = assay: MIC reduction assay (antibiotic adjuvant), S. aureus MM-O021; type: cell-based, Staphylococcus aureus
From the text: (§5) The adjuvant properties of compounds 14–16 in S. aureus clinical isolates were next tested in combination with oxacillin and the penicillinase-susceptible β-lactam antibiotic, ampicillin. The second β-lactam antibiotic was chosen based on its vulnerability to enzymatic hydrolysis, another important resistance mechanism in S. aureus against penicillin. Therefore, the results of the MIC reduction assay obtained on the activity of arylideneimidazolones combined with oxacillin and ampicillin, respectively, might provide further insights into the possible mechanism of action of the compounds. Complete results are presented in Supplementary (Tables S4 and S5), while condensed in Figure 6, in the case of desired activity noted. […] One possible explanation for the lack of adjuvant activity of compounds in some of the strains selected for this study might be that these strains express PBP2a only when induced by the antibiotic, while others, for which potentiating activity of compounds was observed, produce this protein in high levels straight away.
as §2, §4

S. aureus LG-N017 = assay: MIC reduction assay (antibiotic adjuvant), S. aureus LG-N017; type: cell-based, Staphylococcus aureus
From the text: as §5, §2, §4

[5] = doxycycline, chloramphenicol, norfloxacin, erythromycin
[6] = read-out: MIC value/no precipitation
[7] = read-out: Minimal Inhibitory Concentration (MIC)
[8] = ampicillin, range over repetitions

Structure (SMILES) | MIC [1] [µM] | A (activity gain) (K. aerogenes Ea-289; doxycycline) | A (activity gain) (K. aerogenes Ea-289; [5]) | A (activity gain) (K. aerogenes Ea-289; erythromycin) | MIC [2, 6] [µM] | MIC [2, 7] [µM] | Inhibition efficiency (IE) towards extrusion of 1,2'-dNA [3] [%] | A (activity gain) [4] | A (activity gain) (K. aerogenes CM-64) | A (activity gain) (S. aureus MM-O021; [8]) | A (activity gain) (S. aureus MM-O021; erythromycin) | A (activity gain) (S. aureus LG-N017; ampicillin) | A (activity gain) (S. aureus LG-N017; erythromycin) | A (AMP), gain of activity, arithmetic mean (S. aureus MM-O021; ampicillin, arithmetic mean of 3-4 repetitions)
NC1=N/C(=C\c2ccc3c(c2)Cc2ccccc2-3)C(=O)N1CCCN1CCOCC1 [Compound 19] | 250 | 1 | 1 | 1 | > 250 | > 2000 | 90 | 1 | 1 |  |  |  |  | 
NC1=N/C(=C\c2cccc(Oc3ccccc3)c2)C(=O)N1CCCN1CCOCC1 [Compound 16] | 500 |  |  |  |  | > 2000 |  |  |  | 1 | 1 | 1 | 1 | 
NC1=N/C(=C\c2ccc(-c3ccccc3)cc2)C(=O)N1CCCN1CCOCC1 [Compound 15] | 125 | 1 | 1 | 1 | > 250 | > 2000 | 72 | 1 | 1 | 8-16 | 1 | 1 | 1 | 10.7
NC1=N/C(=C\c2ccc(-c3ccccc3)cc2)C(=O)N1CCN1CCOCC1 [Compound 14] | 2000 | 1 | 1 | 1 | > 250 | > 2000 | 57 | 1 | 1 | 1 | 1 | 2 | 1 | 
